Tests used:
Format in all cases: cell-based
[1] = tested on: TGF-b-induced phosphorylation of Smad2 in squamous cell carcinoma (A431) cells; assay: Western blot for phospho-Smad2 in A431 cells; conditions: 10 nM peptide, 100 pM TGF-b, 45 min at 4 C (FIG. 32)
Experimental: A431 cancer cells treated with 10 nM of P16.2 (negative peptide control), P16 or PA in the absence or presence of 100 pM TGF-b, followed by 45 min of incubation at 4 C. Cells lysates were analyzed by Western blot using an anti-phosphoSmad2 antibody. Actin expression was used as loading control.

[2] = tested on: TGF-b induced cellular invasion of squamous cell carcinoma (A431) cells; assay: Matrigel invasion assay, A431 cells; conditions: 10 nM peptide, 100 pM TGF-b, 24 hrs (FIG. 38)
Experimental: A431 cancer cells (8000 cells) were seeded on a BioCoat™ Matrigel® Invasion Chamber and treated with 10 nM of P16.2 (negative peptide control), P16 or PA in the absence or presence of 100 pM TGF-b, followed by 24 hrs of incubation. Invasive cells (in the lower chambers) were stained by crystal violet dye, photographed and counted. Representative photos (A) and statistical plots of invasion (B) are shown. The data are shown as mean±SD of the number of invasive cells for three independent experiments. **P<0.01 and ***P<0.001 as compared with controls. […] Squamous cell carcinoma (epidermoid A431 and head and neck FaDu) cells were stimulated with 100 pM of TGF-b1, then treated with 10 nM of peptide 16.2, P16, PA or CD109 for 24 hours. Cells were analysed by Flow cytometry and CD133 positive cell population, which represent cancer stem cell population, were quantified.

[3] = tested on: human keratinocyte HaCat cell migration; assay: Wound closure assay, HaCat keratinocytes; conditions: 10 nM peptide, 100 pM TGF-β, 24 hours (FIG. 28)
Experimental: FIGS. 28A and 28B show the results of wound closure assays performed using human keratinocyte HaCat cells. […] (FIG. 28A) Human Keratinocyte HaCat cells were starved for 24 hours, scratched with pipette tips, and then treated with 100 pM TGF-β and 10 nM CD109-based peptides as indicated for 24 hours. Microscopy images were taken at time 0 and 24 hours of treatment. (FIG. 28B) Migration distances were measured using the Image J software platform. Error bars represent mean+/−standard deviation, asterisk designates a P value of <0.05.

[4] = tested on: TGF-β1-induced PAI-1 protein production in A431 cells; assay: Western blot for PAI-1 in A431 cells; conditions: for inhibition of TGF-β1-induced PAI-1 protein production, peptide treated with DMSO / inhibition of TGF-β1-induced PAI-1 protein production, peptide in Tris left untreated: 100 pM TGF-β1, 18 hours; for inhibition of TGF-β1-induced PAI-1 protein production, peptide treated with DMSO: 0.5% DMSO (FIG. 9); for inhibition of TGF-β1-induced PAI-1 protein production, peptide in Tris left untreated: no DMSO (FIG. 9)
Experimental: FIG. 7 illustrates that the small molecular weight CD109-based peptide P16 (but not P11 or P16-1) inhibits TGF-β1-induced PAI-protein production. A431 cells were treated without (lane 1) or with 100 pM of TGF-β1 (lanes 2-6) in the absence (lane 2) or presence of 10 nM of P11 (11 aa peptide, lane 3), P16 (16 aa peptide, lane 4), P16-1 (scrambled peptide of 16 aa, lane 5) or Tris buffer (buffer, lane 6) for 24 hrs. Cell lysates were analyzed by Western blot for PAI-1 ([…]) protein levels and normalized to GAPDH protein levels (loading control). In the conditions tested, P16 (but not P11) inhibited TGF-β1-induced PAI-1 expression.
A431 cells were treated for 18 hours without (−) or with (+) 100 pM TGF-β1 in the presence or absence of Peptide X or P16. The peptides were previously dissolved in Tris buffer and left untreated or treated with DMSO prior to addition to the cells. Cell lysates were analyzed by Western blot for PAI-1 (plasminogen activator inhibitor-1) protein expression (top panel) and GAPDH served as a loading control (bottom panel). PAI-1 was not detected in untreated cells (lane 1).
A431 cells were grown in 6-well plates to 70-80% confluency and serum-starved overnight. Cells were washed with PBS and treated with or without TGF-β1 in presence or absence of various CD109-based peptides as indicated in the figure legends. Cells were solubilized with 500 μl of lysis buffer (50 mM Tris, pH 7.5, 150 mM NaCl, 50 mM NaF, 50 mM β-glycerophosphate, 1 mM sodium orthovanadate, 1 mM dithiothreitol, 5 mM EDTA, pH 8.0, 1% Nonidet P-40, 10% glycerol, 10 μM phenylmethylsulfonyl fluoride, 200 μg/ml bovine serum albumin, 1 μg/ml leupeptin, […] soybean trypsin inhibitor, 10 μg/ml benzamide, and 2 μg/ml pepstatin) for 30 min at 4° C. with mild agitation. Cell lysates were collected and centrifuged for 10 min at 10,000×g. The supernatants were collected and protein concentrations were determined using the Bio-Rad protein assay kit. Lysates containing equivalent protein concentrations were mixed with 0.2 volume of 5× electrophoresis sample buffer containing 5% β-mercaptoethanol and boiled for 5 min. Samples were resolved on 7.5% SDS-polyacrylamide gels and transferred to nitrocellulose membranes. Membranes were blocked for 3 h in blocking buffer (30 mM Tris, pH 7.5, 150 mM NaCl, and 0.05% (w/v) Tween 20™ (Tris-buffered saline/Tween) containing 5% (w/v) skim milk powder). The blot was incubated overnight at 4° C. with a 1:1000 dilution of anti-PAI-1 antibody (BD Biosciences). Blots were washed with Tris-buffered saline/Tween and incubated for 45 min at room temperature with a 1:5000 dilution of secondary antibody conjugated to horseradish peroxidase (Pierce). Chemiluminescence detection of the immune complexes was performed using the ECL system (Amersham Biosciences) according to the manufacturer's instructions. The membranes were stripped and reprobed with an anti-GAPDH antibody to confirm equal protein loading.
A431 cells were treated without (lane 1) or with 100 pM of TGF-β1 (lanes 2-6) in the absence (lane 2) or presence of 10 nM of P11 (11 aa peptide, lane 3), P16 (16 aa peptide, lane 4), P16-1 (scrambled peptide of 16 aa, lane 5) or Tris buffer (buffer, lane 6) for 24 hrs. Cell lysates were analyzed by Western blot for PAI-1 ([…]) protein levels and normalized to GAPDH protein levels (loading control).
A431 squamous cell carcinoma cells were treated for 18 hours without (−) or with (+) 100 pM TGF-β1 in the presence or absence of Peptide X or P16. The peptides were dissolved in Tris buffer and left untreated or treated with 0.5% DMSO prior to addition to the cells. Cell lysates were analyzed by Western blot for PAI-1 ([…]) protein expression (top panel) and GAPDH served as a loading control (bottom panel).

Sequence	inhibition of TGF-b-induced phosphorylation of Smad2 [1]	inhibition of TGF-b induced cellular invasion [2]	suppression of HaCat cell migration [3]	inhibition of TGF-β1-induced PAI-1 protein production, peptide treated with DMSO [4]	inhibition of TGF-β1-induced PAI-1 protein production, peptide in Tris left untreated [4]	inhibition of TGF-β1-induced PAI-1 protein production ([4]; 10 nM peptide, 100 pM TGF-β1, 24 hrs (FIG. 7))
ETWIWLDTNMGSRIYQ [Peptide P16]	inhibit	significantly inhibit	suppress	did not enhance	inhibited	inhibited
LGSSPHVRKHFPETWIWLDTNMGSRIYQEFEVTVPDSITS (Peptide X)	–	–	–	inhibited	did not	–
